Values of other authors, collected in patent US20090081206A1, “METHOD AND PHARMACEUTICAL COMPOSITION FOR INHIBITING PREMATURE RAPTURE OF FETAL MEMBRANES, RIPENING OF UTERINE CERVIX AND PRETERM LABOR IN MAMMALS” (priority 1997, published 2009).
Where two headings read alike, the source gives them in different places.

Assays:
[1] = severe pregnancy-induced hypertension
[2] = patches, only 13 cases studied
[3] = 3-mg intravaginal pessaries, mixed group of multigravidae and primigravidae
[4] = intravaginal tablets
[5] = women with cervical Bishop score of 4-5
[6] = for need for additional oxytocin: compared with 100% in placebo
[7] = not given; remark: listed apart in the source
[8] = in vivo
[9] = after single 3-mg suppository alone

| SMILES | reduction of capillary wedge pressure [1] [%] | reduction of mean arterial blood pressure [1] [%] | suppression of preterm labor, safety and tolerability [2] | success rate for induced labor [3] [%] | mean time to labor [9] [h] | patients in whom labor was achieved [9] [%] | additional oxytocin augmentation needed (multifarious women) [%] | additional oxytocin augmentation needed (nulliparous women) [%] | patients induced successfully (achieving active labor) ([4]; multigravidae, 1-mg group) [%] | patients induced successfully (achieving active labor) ([4]; multigravidae, 5-mg group) [%] | patients induced successfully (achieving active labor) ([4]; primigravidae, 1-mg group) [%] | patients induced successfully (achieving active labor) ([4]; primigravidae, 5-mg group) [%] | vaginal birth within 24 hours [5] | established labor and delivered their infants without oxytocin augmentation ([6]; multigravidae, 2.5-mg vaginal suppositories) [%] | need for additional oxytocin ([6]; multigravidae) [%] | established labor and delivered their infants without oxytocin augmentation ([6]; primigravidae, 5-mg vaginal suppositories) [%] | need for additional oxytocin ([6]; primigravidae) [%] | treatment-to-delivery interval ([6]; shorter compared with controls) [h] | antidiuretic and pressor activity relative to vasopressin [7] [%] | plasma half-life [8] [min] |
| --- | --- | --- | --- | --- | --- | --- | --- | --- | --- | --- | --- | --- | --- | --- | --- | --- | --- | --- | --- | --- |
| O=[N+]([O-])OCC(CO[N+](=O)[O-])O[N+](=O)[O-] [GTN, glycerol trinitrate] | 30 | 25 | safe, well-tolerated and non-invasive method of suppressing preterm labor | – | – | – | – | – | – | – | – | – | – | – | – | – | – | – | – | – |
| CCCCC[C@H](O)/C=C/[C@H]1[C@H](O)CC(=O)[C@@H]1C/C=C\CCCC(=O)O [PGE2, prostaglandin E2] | – | – | – | 55 | 1.5 | 98 | 14 | 71 | 39.1 | 62.2 | 29.6 | 62.9 | 17 of 19 | 81 | 19.1 | 63 | 37.5 | 7.6 to 11.6 | – | – |
| CC[C@H](C)[C@@H]1NC(=O)[C@H](Cc2ccc(O)cc2)NC(=O)[C@@H](N)CSSC[C@@H](C(=O)N2CCC[C@H]2C(=O)N[C@@H](CC(C)C)C(=O)NCC(N)=O)NC(=O)[C@H](CC(N)=O)NC(=O)[C@H](CCC(N)=O)NC1=O [oxytocin] | – | – | – | – | – | – | – | – | – | – | – | – | 8 of 19 | – | – | – | – | – | 1 | 5 to 17 |
